Source: the NIST ThermoML archive (doi:10.1021/je800628a)
± gives the expanded uncertainty stated by the source.

Assays:
[1] = Crystal; DTA
[2] = Molar enthalpy of transition or fusion; settings: Crystal; DSC

c1ccc2ccccc2c1 [naphthalene]
Normal melting temperature [1]: 83.0 ± 1.1 °C | Molar enthalpy of transition or fusion [2]: 17.8 ± 0.55 kJ/mol
